# Experimental data taken from PMC5630639 (Scientific Reports, 2017).
# Tests used:
# [1] = test system: tubulin; parameters: method as in PMID 11058036; details: read-out: anti-tubulin activity IC50; cited from earlier work
# [2] = test system: bladder cancer cells; parameters: method as in PMID 18281555; details: cited from earlier work
# [3] = test system: MGC-803 cells; assay: CCK-8 proliferation assay, MGC-803; format: cell-based, human; details: Homo sapiens, MGC-803; 48 h, CCK-8, mean ± SD
# Method: (§1) All synthesized β-lactam-azide derivatives were evaluated for their antiproliferative activity against three cancer cell lines (MGC-803, MCF-7, A549) using CCK-8 proliferation assay. The well-known anticancer drug CA-4P was used as a control[36],[37].
# (§2) MGC-803 cell line was obtained from the Chinese Academy of Sciences (Shanghai, China). MCF-7 and A549 were from the National Cell Center, China. MGC-803 cells were cultured in DMEM culture medium (DMEM, Biological Industries, Kibbutz Beit Haemek, Israel). A549 and MCF-7 cells were cultured in 1640 medium (1640, Biological Industries, Kibbutz Beit Haemek, Israel). All medium were supplemented with 10% fetal bovine serum, 100 U/ml penicillin (North China Pharmaceutical group Co.), and 100 µg/ml streptomycin (North China Pharmaceutical group Co.). All cells were cultured at 37 °C in a humidified incubator containing 5% CO2.
# (§3) Synthesized analogues used in the study were dissolved in 100% cell culture grade DMSO and the final concentration of DMSO as <0.1% for testing on cancer cell lines. Cytotoxicity assays were performed on the human gastric carcinoma cell line MGC-803, the human mammary carcinoma cell line MCF-7, the human lung carcinoma cell line A549. Cells (3500–5000/well) were seeded into 96-well plates in 100 µL of culture medium. The cells were treated in triplicate with a gradient concentration of testing compounds and incubated at 37 °C, 5% CO2 for 48 h. For all cell lines, CCK-8 assay was performed to measure cytotoxic effects. The absorbance was measured using a microplate reader (BioTek Instrument, Inc. Vermont, USA) with a test wavelength of 450 nm. The absorbance levels were corrected against untreated control absorbance values. All experiments were performed in triplicate and SPSS17.0 was used for data analysis to obtain IC50 values.
# [4] = test system: MCF-7 cells; assay: CCK-8 proliferation assay, MCF-7; format: cell-based, human; details: Homo sapiens, MCF7; 48 h, CCK-8, mean ± SD
# Method: as §1, §2, §3
# [5] = test system: A549 cells; assay: CCK-8 proliferation assay, A549; format: cell-based, human; details: Homo sapiens, A549; 48 h, CCK-8, mean ± SD
# Method: as §1, §2, §3
# [6] = test system: three cancer cell lines (MGC-803, MCF-7, A549); assay: CCK-8 proliferation assay, three cancer cell lines together; format: cell-based; details: Homo sapiens, 48 h, read-out: IC50 values toward three cancer cell lines
# Method: as §1, §2
# Synthesized analogues used in the study were dissolved in 100% cell culture grade DMSO and the final concentration of DMSO as <0.1% for testing on cancer cell lines. […] The absorbance was measured using a microplate reader (BioTek Instrument, Inc. Vermont, USA) with a test wavelength of 450 nm. The absorbance levels were corrected against untreated control absorbance values. […]
# [7] = test system: tubulin; parameters: method as in PMID 15588080; details: cited from earlier work
SMILES,IC50 [3],IC50 [4],IC50 [5],melting point,further results
COc1cc(/C=C\c2cc(OC)c(OC)c(OC)c2)ccc1N=[N+]=[N-] [Compound 2],,,,,IC50 [1]: 5.2 µM
COc1cccc(/C=C/C(=O)N=[N+]=[N-])c1OC [Compound 1],,,,,in vitro and in vivo antitumor effect of romidepsin on bladder cancer cells [2]: enhanced
"COc1cc(N2C(=O)[C@H](c3cccs3)[C@H]2c2ccc(N=[N+]=[N-])cc2)cc(OC)c1OC (relative stereo) [Compound 26, trans-4-(4-azidophenyl)-3-(thiophen-2-yl)-1-(3,4,5-trimethoxyphenyl)azetidin-2-one]",0.251 ± 0.053 µM,0.154 ± 0.019 µM,4.2 ± 0.186 µM,,IC50 [6]: 0.154 to 4.2 µM
"CC(=O)OC1C(=O)C2(C)C(O)CC3OCC3(OC(C)=O)C2C(OC(=O)c2ccccc2)C2(O)CC(OC(=O)C(O)C(NC(=O)c3ccccc3)c3ccc(N=[N+]=[N-])cc3)C(C)=C1C2(C)C (stereo not drawn) [Compound 3, 3′-(4-Azidophenyl)-3′-dephenylpaclitaxel]",,,,,activity in tubulin assembly and cytotoxicity assays [7]: as active as paclitaxel
"COc1ccc(N2C(=O)[C@@H](c3ccccc3)[C@@H]2c2ccc(N=[N+]=[N-])cc2)cc1 (relative stereo) [Compound 15, trans-4-(4-azidophenyl)-1-(4-methoxyphenyl)-3-phenylazetidin-2-one]",> 20 µM,> 20 µM,> 20 µM,114 to 116 °C,
"COc1cc(N2C(=O)[C@@H](c3ccccc3)[C@@H]2c2ccc(-n3cc(COc4cccc([N+](=O)[O-])c4)nn3)cc2)cc(OC)c1OC (relative stereo) [Compound 29, trans-4-(4-(4-((3-nitrophenoxy)methyl)-1H-1,2,3-triazol-1-yl)phenyl)-3-phenyl-1-(3,4,5-trimethoxyphenyl)azetidin-2-one]",> 20 µM,> 20 µM,> 20 µM,142 to 145 °C,
